Assay results: patent US7273723B2, “Antibiotic-based gene regulation system” (priority 2001, dated 2007)

Test system: MphR(A) or MphR(A)-NLS / plant promoters PETRpON4, PETRpON8
Assay: EpON erythromycin-inducible GUS expression in Nicotiana tabacum SR1 suspension cells
Assay type: cell-based
Conditions: 250 μg/ml erythromycin
Procedure: The transformation protocol of SR1 cells was adapted from Wu and Feng (1999, Plant Cell Reports 18: 381-386). In brief, 200 mg of exponentially growing SR1 cells were harvested by centrifugation. The cells were incubated for 15 min. in 2% DMSO and washed twice in fresh medium. Cells were subsequently resuspended in electroporation buffer (5 mM CaCl2; 10 mM NaCl2; 0.4 M sucrose; 8.7% glycerol; 4 mM ascorbate; 10 mM HEPES; pH 6.8) and mixed with desired DNA at a concentration of 0.2 μg/μl. The cell-DNA mixture was incubated for 10 min. on ice electroporated at 700 V/cm and 980 μF using a BioRad Gene Pulser and appropriate cuvettes. Following electroporation, cells were kept on ice for 10 min. and deplasmolyzed by 4 subsequent additions of 100 μl LS medium at 5 min. intervals. Transformation rates 20%±5% are typically reached with SR1 cells using this modified protocol.
Transformed SR1 cells were incubated at 25° C. for 48 h while rocking at 110 rpm. […] Cells were lysed in extraction buffer (50 mM NaH2PO4; 10 mM EDTA; 0.1% Triton X-100; 0.1% sodium lauryl sarcosine; 10 mM β-mercaptoethanol; pH 7.0) by freezing them in liquid nitrogen and grinding them using a micropestle. Soluble protein extract was collected by centrifugation for 20 min. at 15,000 rpm and 4° C. Protein concentration of plant extracts was determined using a Bradford assay (Bradford, 1976, Anal. Biochem. 72: 248-254). The GUS expression assay was performed following a modified protocol by Jefferson et al. (1987; EMBO J. 6: 3901-3907). In brief, 100 μl of cell extract were incubated in extraction buffer (see above) also containing 1 mM of the β-glucuronidase substrate 4-methylumbelliferyl glucuronide (MUG; Duchefa, NL). The reaction mixture was incubated at 37° C. and 100 μl aliquots were removed at appropriate time intervals and the reaction stopped by addition of 1.9 ml of 0.2 M K2CO3. The fluorescence time course was determined using typical 365 nm/455 nm excitation/emission profiles and a Shimadzu RF-5001 PC spectrofluorophotometer.
For regulated expression in transgenic plants and plant tissue culture an inducible rather than a repressible gene regulation system would be desirable. This enables induction of transgene […] by addition of the antibiotic rather than by its withdrawal. We therefore constructed an erythromycin-inducible plant gene regulation system (EpON) which consisted of the E. coli MphR(A) repressor protein (SEQ ID NO: 4) which binds, in the absence of macrolide antibiotics, to the ETR binding module cloned downstream of a strong constitutive plant promoter (PCaMV35S). Binding of MphR(A) to the ETR module blocks PCaMV35S-mediated target gene expression. […]

## CC[C@H]1OC(=O)[C@H](C)[C@@H](O[C@H]2C[C@@](C)(OC)[C@@H](O)[C@H](C)O2)[C@H](C)[C@@H](O[C@@H]2O[C@H](C)C[C@H](N(C)C)[C@H]2O)[C@](C)(O)C[C@@H](C)C(=O)[C@H](C)[C@@H](O)[C@]1(C)O [Erythromycin]
pBP8/pBP15 (MphR(A)-NLS / PETRpON4)
  GUS activity upon addition of erythromycin: 313.5±39.6 pmoles 4-MU min^−1 mg^−1 protein^−1
pBP8/pBP35 (MphR(A)-NLS / PETRpON8)
  GUS activity upon addition of erythromycin: 283.6±24.7 pmoles 4-MU min^−1 mg^−1 protein^−1
pBP9/pBP15 (MphR(A) / PETRpON4)
  GUS activity upon addition of erythromycin: 305.2±24.9 pmoles 4-MU min^−1 mg^−1 protein^−1
pBP9/pBP35 (MphR(A) / PETRpON8)
  GUS activity upon addition of erythromycin: 276.7±34.1 pmoles 4-MU min^−1 mg^−1 protein^−1
